US12060588B2, “Methods of editing DNA methylation” (Whitehead Institute for Biomedical Research, priority 2016, dated 2024)

Tested on: Npas4
Assay: Npas4 expression in mouse cortical neurons (RT-qPCR)
Type: cell-based
Details: with the 4 BDNF promoter IV gRNAs
Method: FIGS. 11A-11L depict targeted demethylation of BDNF promoter IV by dCas9-Tet1 in neurons. […] PAM for each gRNA is highlighted by a red box. […] Note that cultured neurons were treated with AraC on DIV2 to halt cell division in glial cells and neural progenitors. […] FIG. 11C provides EDU labeling analysis for the mouse primary neurons over the course of KCl treatment for 24 hrs. Note that extremely few EDU positive cells were observed. Stained in red for EDU, green for MAP2 and DAPI for nuclei. Scale bar: 500 um. FIG. 11D Upper panel: provides quantification of neuronal density over the course of KCl treatment. The post-mitotic neuron density remains steadily around 4.5×10^4/cm2 over time. Bars represent mean±SD of three experimental replicates. Lower panel: provides quantification of the EDU positive cells over the course of KCl treatment. Less than 2% of the cells are EDU-positive over 24 hrs. Bars represent mean±SD of three experimental replicates. FIG. 11E provides confocal micrographs of BDNF induction by ectopic expression of dCas9-Tet1 and a set of 4 gRNAs targeting BDNF promoter IV. Stained in green for BDNF, magenta for MAP2, red for Cherry and blue for DAPI. […]
Cells were harvested using Trizol followed by Direct-zol (Zymo Research), according to manufacturer's instructions. […] Quantitative PCR reactions were prepared with SYBR Green (Invitrogen), and performed in 7900HT Fast ABI instrument. […]

dCas9-Tet1: catalytically inactive Cas9 (dCas9) fused through NLS to the Tet1 catalytic domain, SEQ ID NO: 159; lentivirally expressed with gRNAs
induction of Npas4 expression: did not induce Npas4 expression
